Entries after “also recorded” stand apart in the source; their conditions may differ.
Experiments:
AD patients = settings: cited from earlier work
MC903-treated WT mice = test: Pharmacologic JAK inhibition in MC903-induced AD-associated itch model; format: in vivo, mouse
Description: (§1) For induction of AD-like inflammation and itch, mice were topically treated once daily with 2 nmol of MC903 (calcipotriol, Tocris Bioscience) for 7 days or 1 nmol of MC903 for 12 days on both ears in 20 μL of ethanol (vehicle) as previously described (Kim et al., 2013a, 2014, Siracusa et al., 2011, 2013b). Ear thickness measurements were performed daily with dial calipers as previously described (Kim et al., 2013a, 2014). At the end of the MC903 treatment, murine ear skin tissues were fixed in 4% paraformaldehyde (PFA) and embedded in paraffin before sectioning and staining with Hematoxylin & Eosin (H&E). Histology score was determined by the following formula using ImageJ analysis software (NIH) as previously described: (total number of lymphocytes per high power field (HPF)+thickness of the epidermis measured in microns from the basement membrane to the top of the stratum corneum) divided by 100 (Kim et al., 2014). All images were captured with a NanoZoomer 2.0-HT System (Hamamatsu). Murine disease and behavioral assessment data (below) were derived from two to three independent experiments. For behavioral assessments, mice were first acclimated to the recording room and behavior chambers at least one day prior to testing. On the day of testing, mice were again acclimated to the recording room and behavior chambers and then video recorded. The video recordings were then manually scored for number of scratching bouts per 30 minute block. One scratching bout was defined as one instance of lifting the hind paw from the floor, scratching, and returning the paw to the floor or placing the paw in the animal's mouth. All behavioral tests were performed on sex- and age-matched adult mice (8-12 weeks old). Stock ruxolitinib (Selleck Chemicals) solutions were prepared in DMSO (Sigma) per the manufacturer's instructions. For systemic treatments, mice treated twice daily with 100 μg ruxolitinib diluted in 100 μl PBS by intraperitoneal (i.p.) injection. For intrathecal (i.t.) ruxolitinib treatments, mice were injected 24 hours before behavioral assays with 10 μg ruxolitinib diluted in 10 μl PBS. Control mice were injected with appropriate vehicle controls (DMSO in PBS) of equivalent volumes.

wild type (WT) mice = test: Topical MC903 treatment versus vehicle (AD-like inflammation and itch); format: in vivo, mouse; settings: daily topical to ears, compared to vehicle (EtOH)
Description: as §1, with “old).” for “old). Stock ruxolitinib (Selleck Chemicals) solutions were prepared in DMSO (Sigma) per the manufacturer's instructions. For systemic treatments, mice treated twice daily with 100 μg ruxolitinib diluted in 100 μl PBS by intraperitoneal (i.p.) injection. For intrathecal (i.t.) ruxolitinib treatments, mice were injected 24 hours before behavioral assays with 10 μg ruxolitinib diluted in 10 μl PBS. Control mice were injected with appropriate vehicle controls (DMSO in PBS) of equivalent volumes.”

mouse DRG neurons = test: Ratiometric calcium imaging of cultured murine DRG neurons; format: cell-based; settings: for responsive neurons as a percentage of total mouse DRG neurons: cytokines 300 nM, histamine 50 μM, responsive = change in fluorescence ratio >10% of baseline; for calcium response of DRG neurons to stimulation: ex vivo stimulation, recombinant murine cytokine 300 nM; for cytokine-responsive neurons that also responded to IL-31 or histamine: serial stimulation with the cytokine, then IL-31 and histamine
Description: Murine DRG neurons were isolated and cultured using a previously published protocol with slight modification (Malin et al., 2007). Briefly, laminectomies were performed on mice and bilateral DRG were removed. After removal of connective tissues, DRG were transferred to 1 mL Ca^2+/Mg^2+-free Hank's Balanced Salt Solution (HBSS) containing 1 μL saturated NaHCO3, 0.35 mg L-cysteine, and 20 U papain (Worthington) and incubated at 37° C. for 20 min. The suspension was centrifuged, and the supernatant was removed and replaced with 1 mL Ca^2+/Mg^2+-free HBSS containing 3.75 mg collagenase type II (Worthington) and 7.5 mg dispase (Worthington) and incubated at 37° C. for 20 min. After digestion, neurons were gently triturated, pelleted, and then resuspended in Neurobasal-A medium containing 2% B-27 supplement (Gibco), 100 U/mL penicillin plus 100 μg/mL streptomycin (Sigma), 100 ng/mL nerve growth factor (Sigma), and 10% heat-inactivated FBS (Sigma). Neurons were then plated on a 12 mm glass coverslip pre-coated with poly-L-lysine (Sigma) and laminin (Sigma) and cultured under a humidified atmosphere of 5% CO2 at 37° C. for 18-24 hours before use.
Cultured DRG neurons were loaded with 4 μM Fura-2 AM (Life Technologies) in overnight DRG culture medium at 37° C. for 45 minutes. Cells were then washed three times and incubated in calcium imaging buffer (130 mM NaCl, 3 mM KCl, 2.5 mM CaCl2, 0.6 mM MgCl2, 10 mM HEPES, 10 mM glucose, 1.2 mM NaHCO3, pH 7.45) at room temperature for 30 minutes before use. All recombinant murine cytokines (IL-4, IL-5, and IL-13: Peprotech, IL-31: Bristol-Myers Squibb) were used at 300 nM, while histamine (Sigma) and capsaicin (Sigma) were used at 50 μM and 300 nM, respectively. Only sensory neurons that responded to a final challenge of 100 mM KCl were used in analyses. Fluorescence was recorded at 340 nm and 380 nm excitation wavelengths (F340, F380) using an inverted Nikon Ti-E microscope with NIS-Elements imaging software (Nikon Instruments). Fluorescence ratios (F340/F380) were normalized to baseline and used to reflect changes in intracellular Ca^2+ and neuronal activation upon stimulation. […] Data were derived from two to three independent experiments.

CIP patient (Case 2) = test: Clinical history of CIP patient Case 2 (prior treatment); format: in vivo, human; settings: course of oral prednisone prescribed for polymyalgia rheumatica
Description: This example describes four elderly CIP patients with evidence of marked immune dysregulation after exclusion of other cutaneous and systemic causes of pruritus.
TABLE 2 Legend: (a) Average and peak Numerical Rating Scale (NRS) itch scores at the time of presentation to our clinic are noted, respectively. (b) A thorough workup was performed to establish the diagnosis of CIP by exclusion of other cutaneous and systemic causes of pruritus, including psychiatric and neurologic conditions, renal failure, biliary dysfunction, thyroid abnormalities, HIV/AIDS, hepatitis B, and hepatitis C. […] (d) Outside of two episodes of septic arthritis arising from knee replacement surgery, the patient had no history of persistent or recurrent infections, autoimmunity, or malignancy.

patients with CIP = test: NRS itch scoring of CIP patients under treatment
[1] = i.p. 100 μg twice daily during MC903 treatment, Day 7

## dupilumab: an anti-IL-4Rα monoclonal antibody
AD patients; Phase II and III clinical trials
  disease and itch severity in AD patients: remarkable improvement

## N#CC[C@H](C1CCCC1)n1cc(-c2ncnc3[nH]ccc23)cn1 [ruxolitinib]
MC903-treated WT mice; [1]
  ear skin thickening: statistically significant, but only slight, reduction
  histologic parameters of disease: statistically significant, but only slight, reduction
  scratching bouts: significantly reduced
MC903-treated WT mice; single intrathecal (i.t.) injection 10 μg
  peripheral skin inflammation (ear thickness, histopathology, histology score): no effect
MC903-treated WT mice; single intrathecal (i.t.) injection 10 μg, 24 hours before behavioral assay
  scratching bouts: marked reduction

## C=C1/C(=C\C=C2/CCC[C@]3(C)[C@@H]([C@H](C)/C=C/[C@@H](O)C4CC4)CC[C@@H]23)C[C@@H](O)C[C@@H]1O [MC903, calcipotriol]
Wild type (WT) mice
  histologic score of inflammation: higher
  itch phenotype by scratching bouts over time: marked chronic itch phenotype
  skin inflammation measured by ear skin thickening and histologic features: robust skin inflammation

## NCCc1c[nH]cn1 [histamine]
Mouse DRG neurons
  responsive neurons as a percentage of total mouse DRG neurons: ~25%

## IL-4: recombinant murine IL-4 (Peprotech)
Mouse DRG neurons
  responsive neurons as a percentage of total mouse DRG neurons: 4.1±0.5%
  calcium response of DRG neurons to stimulation: rapid rise of intracellular calcium in a subset of neurons
  cytokine-responsive neurons that also responded to IL-31 or histamine: 88.9%

## C[C@]12C=CC(=O)C=C1CC[C@@H]1[C@@H]2C(=O)C[C@@]2(C)[C@H]1CC[C@]2(O)C(=O)CO [prednisone]
CIP patient (Case 2)
  muscle weakness: improved
  pruritus: did not resolve

## C[C@@H]1CCN(C(=O)CC#N)C[C@@H]1N(C)c1ncnc2[nH]ccc12 [tofacitinib]
Patients with CIP; CIP patients (N=5), 5 mg by mouth twice daily, one month
  NRS itch score / itch symptoms: marked improvement; also recorded: improved significantly; also recorded: dramatic improvement
Patients with CIP; one CIP subject over 70 days, cyclosporine alone, then switched to JAK inhibitor
  daily itch scores (NRS), single subject: significant improvement
AD patients; pilot studies and Phase II clinical trials
  itch symptoms in AD patients: rapid and significant reduction

B1: IL-13: recombinant murine IL-13 (Peprotech) (protein, UniProt P20109 19-131, looked up)
Interleukin-13: APGPVPRSVSLPLTLKELIEELSNITQDQTPLCNGSMVWSVDLAAGGFCVALDSLTNISNCNAIYRTQRILHGLCNRKAPTTVSSLPDTKIEVAHFITKLLSYTKQLFRHGPF
Mouse DRG neurons
  responsive neurons as a percentage of total mouse DRG neurons: 3.3±0.8%
  calcium response of DRG neurons to stimulation: rapid rise of intracellular calcium in a subset of neurons
  cytokine-responsive neurons that also responded to IL-31 or histamine: 75.0%

B2: IL-31: recombinant murine IL-31 (Bristol-Myers Squibb), known cytokine pruritogen (protein, UniProt Q6EAL8 24-163, looked up)
Interleukin-31: TCSLSFGAPISKEDLRTTIDLLKQESQDLYNNYSIKQASGMSADESIQLPCFSLDREALTNISVIIAHLEKVKVLSENTVDTSWVIRWLTNISCFNPLNLNISVPGNTDESYDCKVFVLTVLKQFSNCMAELQAKDNTTC
Mouse DRG neurons
  responsive neurons as a percentage of total mouse DRG neurons: approximately 5%

B3: IL-5: recombinant murine IL-5 (Peprotech) (protein, UniProt P04401 21-133, looked up)
Interleukin-5: MEIPMSTVVKETLTQLSAHRALLTSNETMRLPVPTHKNHQLCIGEIFQGLDILKNQTVRGGTVEMLFQNLSLIKKYIDRQKEKCGEERRRTRQFLDYLQEFLGVMSTEWAMEG
Mouse DRG neurons
  calcium response of DRG neurons to stimulation: no responses; also recorded: does not activate

Reference: patent US11931412B2, “JAK1 inhibitors and uses thereof” (Washington University, priority 2016, dated 2024)
